# Values quoted from earlier work, collected in publication PMC9668914, “Understanding VPAC receptor family peptide binding and selectivity” (Nature Communications, 2022).
# Target: T1, PAC1R (Homo sapiens, UniProt P41586)
# T1 construct: An HA signal peptide was inserted in place of the native signal peptide of the receptors; HA signal peptide (replaces the native signal peptide) (N); 3C protease cleavage sites (between FLAG and receptor, and between receptor and His) (internal); expressed in transfected cells; host or cells: COS-7 (transient, PEI)
# T1 sequence (P41586 21-468): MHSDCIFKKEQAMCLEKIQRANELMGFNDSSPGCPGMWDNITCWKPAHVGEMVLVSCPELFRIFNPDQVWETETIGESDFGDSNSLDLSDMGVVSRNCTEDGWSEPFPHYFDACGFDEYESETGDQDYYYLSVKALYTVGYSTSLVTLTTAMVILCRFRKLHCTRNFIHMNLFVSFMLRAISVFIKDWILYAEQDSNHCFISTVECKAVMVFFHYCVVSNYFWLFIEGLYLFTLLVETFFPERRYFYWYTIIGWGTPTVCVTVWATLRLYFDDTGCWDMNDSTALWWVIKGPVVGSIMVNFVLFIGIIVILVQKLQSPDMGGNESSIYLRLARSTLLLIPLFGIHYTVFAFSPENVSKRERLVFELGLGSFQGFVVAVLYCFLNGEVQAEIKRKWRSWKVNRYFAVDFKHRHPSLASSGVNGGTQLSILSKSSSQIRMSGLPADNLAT
# Design: method as in PMID 8995389
# Conditions: cited from earlier work
substance,measurement,value
maxadilan,agonist selectivity,PAC1R-selective agonist
